Legend:
Assay in all cases: relative viability (nuclei count vs DMSO), 5 days (fraction); higher = more cells survive
SK-MES-1 = system: SK-MES-1
Summary of the method: (§1)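 Five library-drug doses in √10 steps were combined with a fixed anchor-drug dose, or a single drug was given alone, by pin tool to lung cancer cell lines in 1536-well plates the day after seeding. Nuclei were stained and counted after 5 days. Relative viability is the nuclei count in treated wells over that in vehicle wells, taken as the median of duplicate plates.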

NCI-H2009 = system: NCI-H2009
Summary of the method: as §1

UMC-11 = system: UMC-11
Summary of the method: as §1

NCI-H1793 = system: NCI-H1793
Summary of the method: as §1

NCI-H2228 = system: NCI-H2228
Summary of the method: as §1

NCI-H1395 = system: NCI-H1395
Summary of the method: as §1

NCI-H647 = system: NCI-H647
Summary of the method: as §1

COR-L23 = system: COR-L23
Summary of the method: as §1

NCI-H1792 = system: NCI-H1792
Summary of the method: as §1

NCI-H1755 = system: NCI-H1755
Summary of the method: as §1

NCI-H2170 = system: NCI-H2170
Summary of the method: as §1

HCC-15 = system: HCC-15
Summary of the method: as §1

NCI-H838 = system: NCI-H838
Summary of the method: as §1

NCI-H1993 = system: NCI-H1993
Summary of the method: as §1

HOP-62 = system: HOP-62
Summary of the method: as §1

NCI-H1355 = system: NCI-H1355
Summary of the method: as §1

NCI-H2347 = system: NCI-H2347
Summary of the method: as §1

HARA = system: HARA
Summary of the method: as §1

COR-L 105 = system: COR-L 105
Summary of the method: as §1

NCI-H358 = system: NCI-H358
Summary of the method: as §1

NCI-H1734 = system: NCI-H1734
Summary of the method: as §1

SMILES: Cc1sc2c(c1C)C(c1ccc(Cl)cc1)=N[C@@H](CC(=O)OC(C)(C)C)c1nnc(C)n1-2 [JQ1] + CS(=O)(=O)CCNCc1ccc(-c2ccc3ncnc(Nc4ccc(OCc5cccc(F)c5)c(Cl)c4)c3c2)o1 [Lapatinib] (partner 2 µM)
- relative viability (SK-MES-1; first compound 0.04 µM): 0.455
- relative viability (SK-MES-1; first compound 0.1265 µM): 0.436
- relative viability (SK-MES-1; first compound 0.4 µM): 0.361
- relative viability (SK-MES-1; first compound 1.265 µM): 0.292
- relative viability (SK-MES-1; first compound 4 µM): 0.274
- relative viability (NCI-H2009; first compound 0.04 µM): 0.961
- relative viability (NCI-H2009; first compound 0.1265 µM): 0.412
- relative viability (NCI-H2009; first compound 0.4 µM): 0.336
- relative viability (NCI-H2009; first compound 1.265 µM): 0.285
- relative viability (NCI-H2009; first compound 4 µM): 0.251
- relative viability (UMC-11; first compound 0.04 µM): 0.876
- relative viability (UMC-11; first compound 0.1265 µM): 0.757
- relative viability (UMC-11; first compound 0.4 µM): 0.419
- relative viability (UMC-11; first compound 1.265 µM): 0.255
- relative viability (UMC-11; first compound 4 µM): 0.271
- relative viability (NCI-H1793; first compound 0.04 µM): 0.617
- relative viability (NCI-H1793; first compound 0.1265 µM): 0.776
- relative viability (NCI-H1793; first compound 0.4 µM): 0.805
- relative viability (NCI-H1793; first compound 1.265 µM): 0.652
- relative viability (NCI-H1793; first compound 4 µM): 0.576
- relative viability (NCI-H2228; first compound 0.04 µM): 0.902
- relative viability (NCI-H2228; first compound 0.1265 µM): 0.876
- relative viability (NCI-H2228; first compound 0.4 µM): 0.751
- relative viability (NCI-H2228; first compound 1.265 µM): 0.374
- relative viability (NCI-H2228; first compound 4 µM): 0.327
- relative viability (NCI-H1395; first compound 0.04 µM): 0.931
- relative viability (NCI-H1395; first compound 0.1265 µM): 0.733
- relative viability (NCI-H1395; first compound 0.4 µM): 0.935
- relative viability (NCI-H1395; first compound 1.265 µM): 0.492
- relative viability (NCI-H1395; first compound 4 µM): 0.487
- relative viability (NCI-H647; first compound 0.04 µM): 0.997
- relative viability (NCI-H647; first compound 0.1265 µM): 0.509
- relative viability (NCI-H647; first compound 0.4 µM): 0.439
- relative viability (NCI-H647; first compound 1.265 µM): 0.104
- relative viability (NCI-H647; first compound 4 µM): 0.0821
- relative viability (COR-L23; first compound 0.04 µM): 0.926
- relative viability (COR-L23; first compound 0.1265 µM): 0.782
- relative viability (COR-L23; first compound 0.4 µM): 0.942
- relative viability (COR-L23; first compound 1.265 µM): 0.773
- relative viability (COR-L23; first compound 4 µM): 0.623
- relative viability (NCI-H1792; first compound 0.04 µM): 0.947
- relative viability (NCI-H1792; first compound 0.4 µM): 0.916
- relative viability (NCI-H1792; first compound 1.265 µM): 0.896
- relative viability (NCI-H1792; first compound 4 µM): 0.688
- relative viability (NCI-H1755; first compound 0.04 µM): 1.06
- relative viability (NCI-H1755; first compound 0.1265 µM): 0.735
- relative viability (NCI-H1755; first compound 0.4 µM): 1.05
- relative viability (NCI-H1755; first compound 1.265 µM): 0.853
- relative viability (NCI-H1755; first compound 4 µM): 0.607
- relative viability (NCI-H2170; first compound 0.04 µM): 0.258
- relative viability (NCI-H2170; first compound 0.1265 µM): 0.252
- relative viability (NCI-H2170; first compound 0.4 µM): 0.262
- relative viability (NCI-H2170; first compound 1.265 µM): 0.229
- relative viability (NCI-H2170; first compound 4 µM): 0.254
- relative viability (HCC-15; first compound 0.04 µM): 0.778
- relative viability (HCC-15; first compound 0.4 µM): 0.85
- relative viability (HCC-15; first compound 1.265 µM): 0.655
- relative viability (HCC-15; first compound 4 µM): 0.592
- relative viability (NCI-H838; first compound 0.04 µM): 0.991
- relative viability (NCI-H838; first compound 0.1265 µM): 0.462
- relative viability (NCI-H838; first compound 0.4 µM): 0.454
- relative viability (NCI-H838; first compound 1.265 µM): 0.237
- relative viability (NCI-H838; first compound 4 µM): 0.191
- relative viability (NCI-H1993; first compound 0.04 µM): 0.825
- relative viability (NCI-H1993; first compound 0.1265 µM): 0.812
- relative viability (NCI-H1993; first compound 0.4 µM): 0.676
- relative viability (NCI-H1993; first compound 1.265 µM): 0.702
- relative viability (NCI-H1993; first compound 4 µM): 0.65
- relative viability (HOP-62; first compound 0.04 µM): 1.07
- relative viability (HOP-62; first compound 0.1265 µM): 0.724
- relative viability (HOP-62; first compound 0.4 µM): 0.636
- relative viability (HOP-62; first compound 1.265 µM): 0.241
- relative viability (HOP-62; first compound 4 µM): 0.126
- relative viability (NCI-H1355; first compound 0.04 µM): 0.967
- relative viability (NCI-H1355; first compound 0.1265 µM): 0.973
- relative viability (NCI-H1355; first compound 0.4 µM): 0.956
- relative viability (NCI-H1355; first compound 1.265 µM): 0.765
- relative viability (NCI-H1355; first compound 4 µM): 0.596
- relative viability (NCI-H2347; first compound 0.04 µM): 0.934
- relative viability (NCI-H2347; first compound 0.1265 µM): 0.623
- relative viability (NCI-H2347; first compound 0.4 µM): 0.831
- relative viability (NCI-H2347; first compound 1.265 µM): 0.701
- relative viability (NCI-H2347; first compound 4 µM): 0.679
- relative viability (HARA; first compound 0.04 µM): 0.871
- relative viability (HARA; first compound 0.1265 µM): 0.559
- relative viability (HARA; first compound 0.4 µM): 0.642
- relative viability (HARA; first compound 1.265 µM): 0.317
- relative viability (HARA; first compound 4 µM): 0.165
- relative viability (COR-L 105; first compound 0.04 µM): 0.291
- relative viability (COR-L 105; first compound 0.1265 µM): 0.279
- relative viability (COR-L 105; first compound 0.4 µM): 0.323
- relative viability (COR-L 105; first compound 1.265 µM): 0.346
- relative viability (COR-L 105; first compound 4 µM): 0.361
- relative viability (NCI-H358; first compound 0.04 µM): 0.467
- relative viability (NCI-H358; first compound 0.1265 µM): 0.494
- relative viability (NCI-H358; first compound 0.4 µM): 0.647
- relative viability (NCI-H358; first compound 1.265 µM): 0.561
- relative viability (NCI-H358; first compound 4 µM): 0.577
- relative viability (NCI-H1734; first compound 0.04 µM): 1.08
- relative viability (NCI-H1734; first compound 0.1265 µM): 0.908
- relative viability (NCI-H1734; first compound 0.4 µM): 1.03
- relative viability (NCI-H1734; first compound 1.265 µM): 0.657
- relative viability (NCI-H1734; first compound 4 µM): 1.04
